Test results: ChEMBL document CHEMBL3044572, “Discovery of 2-(4-cyano-3-trifluoromethylphenyl amino)-4-(4-quinazolinyloxy)-6-piperazinyl(piperidinyl)-s-triazines as potential antibacterial agents” (2012)
Converted amounts (≈) assume the structure as drawn. The source made the active and inactive calls. The calls are words filed in the database; no cut-off is given here.

Tests used:
[1] = tested on: Mycobacterium tuberculosis; assay: Antimicrobial activity against Mycobacterium tuberculosis H37Rv by BACTEC MGIT method; format: functional; details: Mycobacterium tuberculosis, H37Rv
Pseudomonas aeruginosa [2] = assay: Antimicrobial activity against Pseudomonas aeruginosa MTCC 741 by paper disk diffusion method; format: functional
Staphylococcus aureus [3] = assay: Antimicrobial activity against Staphylococcus aureus MTCC 96 by agar streak dilution method; format: functional
Escherichia coli [4] = assay: Antimicrobial activity against Escherichia coli MTCC 739 by paper disk diffusion method; format: functional
Aspergillus niger [5] = assay: Antimicrobial activity against Aspergillus niger MTCC 282 by agar streak dilution method; format: functional
Candida albicans [6] = assay: Antimicrobial activity against Candida albicans MTCC 183 by paper-disk diffusion method; format: functional
Shigella flexneri [7] = assay: Antimicrobial activity against Shigella flexneri MTCC 1457 at 100 ug/ml by paper-disk diffusion method; format: functional, organism-based
Salmonella typhi [8] = assay: Antimicrobial activity against Salmonella enterica subsp. enterica serovar Typhi MTCC 733 by agar streak dilution method; format: functional
Bacillus cereus [9] = assay: Antimicrobial activity against Bacillus cereus MTCC 619 by paper disk diffusion method; format: functional
Bacillus cereus [10] = assay: Antimicrobial activity against Bacillus cereus MTCC 619 by agar streak dilution method; format: functional
Klebsiella pneumoniae [11] = assay: Antimicrobial activity against Klebsiella pneumoniae MTCC 109 by agar streak dilution method; format: functional
Pseudomonas aeruginosa [12] = assay: Antimicrobial activity against Pseudomonas aeruginosa MTCC 741 by agar streak dilution method; format: functional
Aspergillus fumigatus [13] = assay: Antimicrobial activity against Aspergillus fumigatus MTCC 343 by agar streak dilution method; format: functional
Aspergillus clavatus [14] = assay: Antimicrobial activity against Aspergillus clavatus MTCC 1323 by agar streak dilution method; format: functional
Klebsiella pneumoniae [15] = assay: Antimicrobial activity against Klebsiella pneumoniae MTCC 109 by paper disk diffusion method; format: functional
Aspergillus clavatus [16] = assay: Antimicrobial activity against Aspergillus clavatus MTCC 1323 by paper disk diffusion method; format: functional
Staphylococcus aureus [17] = assay: Antimicrobial activity against Staphylococcus aureus MTCC 96 by paper-disk diffusion method; format: functional
Aspergillus fumigatus [18] = assay: Antimicrobial activity against Aspergillus fumigatus MTCC 343 by paper-disk diffusion method; format: functional
Escherichia coli [19] = assay: Antimicrobial activity against Escherichia coli MTCC 739 by agar streak dilution method; format: functional
Proteus vulgaris [20] = assay: Antimicrobial activity against Proteus vulgaris MTCC 1771 by paper disk diffusion method; format: functional
[21] = tested on: Mycobacterium tuberculosis; assay: Antimicrobial activity against Mycobacterium tuberculosis H37Rv by Lowenstein and Jensen method; format: functional; details: for MIC: Mycobacterium tuberculosis, H37Rv
Proteus vulgaris [22] = assay: Antimicrobial activity against Proteus vulgaris MTCC 1771 by agar streak dilution method; format: functional
Candida albicans [23] = assay: Antimicrobial activity against Candida albicans MTCC 183 by agar streak dilution method; format: functional
Salmonella typhi [24] = assay: Antimicrobial activity against Salmonella enterica subsp. enterica serovar Typhi MTCC 733 by paper disk diffusion method; format: functional
[25] = tested on: Mycobacterium tuberculosis; assay: Antimicrobial activity against Mycobacterium tuberculosis H37Rv at 100 ug/ml by BACTEC MGIT method; format: functional, organism-based
Aspergillus niger [26] = assay: Antimicrobial activity against Aspergillus niger MTCC 282 by paper-disk diffusion method; format: functional
Klebsiella pneumoniae [27] = assay: Antimicrobial activity against Klebsiella pneumoniae MTCC 109 at 100 ug/ml by paper disk diffusion method; format: functional, organism-based
Aspergillus fumigatus [28] = assay: Antimicrobial activity against Aspergillus fumigatus MTCC 343 at 100 ug/ml by paper-disk diffusion method; format: functional, organism-based
Escherichia coli [29] = assay: Antimicrobial activity against Escherichia coli MTCC 739 at 100 ug/ml by paper-disk diffusion method; format: functional, organism-based
Shigella flexneri [30] = assay: Antimicrobial activity against Shigella flexneri MTCC 1457 by agar streak dilution method; format: functional
Pseudomonas aeruginosa [31] = assay: Antimicrobial activity against Pseudomonas aeruginosa MTCC 741 at 100 ug/ml by paper disk diffusion method; format: functional, organism-based
Shigella flexneri [32] = assay: Antimicrobial activity against Shigella flexneri MTCC 1457 by paper disk diffusion method; format: functional

SMILES | MIC [1] [µg/mL] | inhibition zone (IZ) (Pseudomonas aeruginosa [2]) [mm] | MIC (Staphylococcus aureus [3]) [µg/mL] | MIC (Aspergillus niger [5]) [µg/mL] | inhibition zone (IZ) (Candida albicans [6]) [mm] | MIC (Salmonella typhi [8]) [µg/mL] | inhibition zone (IZ) (Bacillus cereus [9]) [mm] | MIC (Bacillus cereus [10]) [µg/mL] | MIC (Pseudomonas aeruginosa [12]) [µg/mL] | MIC (Aspergillus clavatus [14]) [µg/mL] | inhibition zone (IZ) (Aspergillus clavatus [16]) [mm] | inhibition zone (IZ) (Staphylococcus aureus [17]) [mm] | inhibition zone (IZ) (Proteus vulgaris [20]) [mm] | inhibition (percent inhibition) [21] [%] | MIC [21] [µg/mL] | MIC (Proteus vulgaris [22]) [µg/mL] | MIC (Candida albicans [23]) [µg/mL] | inhibition zone (IZ) (Salmonella typhi [24]) [mm] | inhibition [25] | inhibition zone (IZ) (Aspergillus niger [26]) [mm] | further results
N#Cc1ccc(Nc2nc(Oc3ncnc4ccccc34)nc(N3CCC(Cc4ccccc4)CC3)n2)cc1C(F)(F)F | > 6.25 | 19 | 100 (≈ 172 µM) | 100 (≈ 172 µM) | 22 | 100 (≈ 172 µM) | 23 | 100 (≈ 172 µM) | 100 (≈ 172 µM) | 100 (≈ 172 µM) | 20 | 23 | 23 | 94 | 500 (≈ 858 µM) | 25 (≈ 42.9 µM) | 100 (≈ 172 µM) | 22 | inactive | 21 | inhibition zone (IZ) (Escherichia coli [4]): 21 mm; inhibition zone (IZ) (Shigella flexneri [7]): inactive; MIC (Klebsiella pneumoniae [11]): 100 µg/mL (≈ 172 µM); MIC (Aspergillus fumigatus [13]): 100 µg/mL (≈ 172 µM); inhibition zone (IZ) (Klebsiella pneumoniae [15]): 23 mm; inhibition zone (IZ) (Aspergillus fumigatus [18]): 21 mm; MIC (Escherichia coli [19]): 100 µg/mL (≈ 172 µM)
N#Cc1ccc(Nc2nc(Oc3ncnc4ccccc34)nc(N3CCN(C(c4ccccc4)c4ccccc4)CC3)n2)cc1C(F)(F)F | > 6.25 | 22 | 25 (≈ 37.9 µM) | 100 (≈ 152 µM) | 21 | 100 (≈ 152 µM) | 24 | 100 (≈ 152 µM) | 50 (≈ 75.8 µM) | 100 (≈ 152 µM) | 21 | 25 | 21 | 97 | 62.5 (≈ 94.7 µM) | 100 (≈ 152 µM) | 100 (≈ 152 µM) | 23 | inactive | 21 | inhibition zone (IZ) (Escherichia coli [4]): 23 mm; inhibition zone (IZ) (Shigella flexneri [7]): inactive; inhibition zone (IZ) (Klebsiella pneumoniae [27]): inactive; MIC (Aspergillus fumigatus [13]): 100 µg/mL (≈ 152 µM); inhibition zone (IZ) (Aspergillus fumigatus [18]): 23 mm; MIC (Escherichia coli [19]): 100 µg/mL (≈ 152 µM)
N#Cc1ccc(Nc2nc(Oc3ncnc4ccccc34)nc(N3CCN(c4ccccn4)CC3)n2)cc1C(F)(F)F | > 6.25 | 21 | 50 (≈ 87.6 µM) | 100 (≈ 175 µM) | 21 | 100 (≈ 175 µM) | 24 | 25 (≈ 43.8 µM) | 100 (≈ 175 µM) | 100 (≈ 175 µM) | 20 | 22 | 21 | 96 | 200 (≈ 351 µM) | 100 (≈ 175 µM) | 100 (≈ 175 µM) | 21 | inactive | 21 | inhibition zone (IZ) (Aspergillus fumigatus [28]): inactive; inhibition zone (IZ) (Shigella flexneri [7]): inactive; inhibition zone (IZ) (Klebsiella pneumoniae [27]): inactive; inhibition zone (IZ) (Escherichia coli [29]): inactive
COc1ccc(N2CCN(c3nc(Nc4ccc(C#N)c(C(F)(F)F)c4)nc(Oc4ncnc5ccccc45)n3)CC2)cc1 | > 6.25 | 27 | 6.25 (≈ 10.4 µM) | 6.25 (≈ 10.4 µM) | 25 | 25 (≈ 41.7 µM) | 25 | 6.25 (≈ 10.4 µM) | 12.5 (≈ 20.8 µM) | 6.25 (≈ 10.4 µM) | 25 | 27 | 26 | 99 | 25 (≈ 41.7 µM) | 6.25 (≈ 10.4 µM) | 12.5 (≈ 20.8 µM) | 25 | inactive | 25 | MIC (Shigella flexneri [30]): 50 µg/mL (≈ 83.4 µM); inhibition zone (IZ) (Pseudomonas aeruginosa [31]): inactive; inhibition zone (IZ) (Escherichia coli [4]): 28 mm; MIC (Klebsiella pneumoniae [11]): 12.5 µg/mL (≈ 20.8 µM); MIC (Aspergillus fumigatus [13]): 6.25 µg/mL (≈ 10.4 µM); inhibition zone (IZ) (Klebsiella pneumoniae [15]): 25 mm; inhibition zone (IZ) (Aspergillus fumigatus [18]): 25 mm; MIC (Escherichia coli [19]): 6.25 µg/mL (≈ 10.4 µM); inhibition zone (IZ) (Shigella flexneri [32]): 23 mm
